Measured values: patent US20230085307A1, “PYRIDAZINONE COMPOUND AND HERBICIDE” (NISSAN CHEMICAL CORPORATION, priority 2019, published 2023)

Tests used:
[1] = system: Italian ryegrass; test: Test Example 4: herbicidal effect by soil treatment (Table 19, symbol K); type: in vivo, Italian ryegrass (Lolium multiflorum); settings: for herbicidal effect rating, K: Italian ryegrass: amount of applied herbicide 320 g/ha; for K: Italian ryegrass, herbicidal effect rating: AAH 320 g/ha
Summary of the method: (§1)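 In this soil treatment, the formulated compound reached the seeds only through the soil: seeds were buried about 1.5 cm deep in sterilized diluvial soil, then the diluted emulsion was sprayed over the surface. After three weeks at 25° C. to 30° C. in a greenhouse, effects were graded on criteria from an earlier test.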

[2] = system: windgrass; test: Test Example 4: herbicidal effect by soil treatment (Table 19, symbol L); type: in vivo, windgrass (Apera spica-venti); settings: for herbicidal effect rating, L: windgrass: amount of applied herbicide 320 g/ha; for L: windgrass, herbicidal effect rating: AAH 320 g/ha
Summary of the method: as §1

[3] = system: wild oat; test: Test Example 5: herbicidal effect by foliage application, plastic box (Table 20, symbol I); type: in vivo, wild oat (Avena fatua); settings: foliage application, three weeks after application; for herbicidal effect grade, I: wild oat: 320 g/ha; for I: wild oat, herbicidal effect: AAH 320 g/ha
Summary of the method: (§2)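 Plants were sown into sterilized diluvial soil under about 1.5 cm cover and kept in a greenhouse at 25° C. to 30° C. Fourteen days on, foliage received an even spray of the diluted emulsion. Herbicidal or crop effect was judged three weeks afterwards.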

[4] = system: redroot pigweed; test: Test Example 5: herbicidal effect by foliage application, plastic box (Table 20, symbol N); type: in vivo, redroot pigweed (Amaranthus retroflexus); settings: foliage application, three weeks after application; for herbicidal effect grade, N: redroot pigweed: 320 g/ha; for N: redroot pigweed, herbicidal effect: AAH 320 g/ha
Summary of the method: as §2

[5] = system: Italian ryegrass; test: Test Example 5: herbicidal effect by foliage application, plastic box (Table 20, symbol K); type: in vivo, Italian ryegrass (Lolium multiflorum); settings: foliage application, three weeks after application; for herbicidal effect grade, K: Italian ryegrass: 320 g/ha; for K: Italian ryegrass, herbicidal effect: AAH 320 g/ha
Summary of the method: as §2

[6] = system: late watergrass; test: Test Example 2: herbicidal activity, application during weed generation under submerged conditions (Table 17, symbol A); type: in vivo, late watergrass (Echinochloa oryzicola); settings: AAH 320 g/ha; application during weed generation, submerged conditions
Summary of the method: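 Mixed weed seedlings in alluvial soil under a 4 cm water layer, greenhouse-grown at 25–30° C. Compound given as a diluted emulsion into the floodwater at the 1–2 leaf stage; response graded after three weeks.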

[7] = system: wild oat; test: Test Example 4: herbicidal effect by soil treatment (Table 19, symbol I); type: in vivo, wild oat (Avena fatua); settings: for herbicidal effect rating, I: wild oat: amount of applied herbicide 320 g/ha; for I: wild oat, herbicidal effect rating: AAH 320 g/ha
Summary of the method: as §1

[8] = system: lambsquarters; test: Test Example 4: herbicidal effect by soil treatment (Table 19, symbol O); type: in vivo, lambsquarters (Chenopodium album); settings: for herbicidal effect rating, O: lambsquarters: amount of applied herbicide 320 g/ha; for O: lambsquarters, herbicidal effect rating: AAH 320 g/ha
Summary of the method: as §1

[9] = system: late watergrass; test: Test Example 1: herbicidal activity, application before weed generation under submerged conditions (Table 16, symbol A); type: in vivo, late watergrass (Echinochloa oryzicola); settings: 320 g/ha applied herbicide
Summary of the method: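 Submerged Wagner pots (alluvial soil, 4 cm water) sown with weed seeds and planted with 2.5-leaf rice seedlings; emulsifiable concentrate diluted in water applied to water surface on sowing day. Held in greenhouse at 25-30 °C; injury scored 0-5 by herbicidal rate after three weeks.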

[10] = system: rice flat sedge; test: Test Example 3: herbicidal effect by foliage application, Wagner pot (Table 18, symbol E); type: in vivo, rice flat sedge (Cyperus iria); settings: 320 g/ha
Summary of the method: (§3)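 Plants were sown in alluvial soil held under 0.1–0.5 cm standing water and grown 14 days in a greenhouse at 25–30 °C. An emulsifiable formulation, water-diluted to the set dose, was then sprayed onto the foliage, and effects were scored three weeks later using previously defined criteria.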

[11] = system: lambsquarters; test: Test Example 5: herbicidal effect by foliage application, plastic box (Table 20, symbol O); type: in vivo, lambsquarters (Chenopodium album); settings: foliage application, three weeks after application; for herbicidal effect grade, O: lambsquarters: 320 g/ha; for O: lambsquarters, herbicidal effect: AAH 320 g/ha
Summary of the method: as §2

[12] = system: chickweed; test: Test Example 5: herbicidal effect by foliage application, plastic box (Table 20, symbol P); type: in vivo, common chickweed (Stellaria media); settings: foliage application, three weeks after application; for herbicidal effect grade, P: chickweed: 320 g/ha; for P: chickweed, herbicidal effect: AAH 320 g/ha
Summary of the method: as §2

[13] = system: Chinese sprangletop; test: Test Example 3: herbicidal effect by foliage application, Wagner pot (Table 18, symbol D); type: in vivo, chinese sprangletop (Leptochloa chinensis); settings: 320 g/ha
Summary of the method: as §3

[14] = system: southern crabgrass; test: Test Example 4: herbicidal effect by soil treatment (Table 19, symbol F); type: in vivo, southern crabgrass (Digitaria ciliaris); settings: for herbicidal effect rating, F: southern crabgrass: amount of applied herbicide 320 g/ha; for F: southern crabgrass, herbicidal effect rating: AAH 320 g/ha
Summary of the method: as §1

[15] = system: barnyard grass; test: Test Example 5: herbicidal effect by foliage application, plastic box (Table 20, symbol H); type: in vivo, barnyard grass (Echinochloa crus-galli); settings: foliage application, three weeks after application; for herbicidal effect grade, H: barnyard grass: 320 g/ha; for H: barnyard grass, herbicidal effect: AAH 320 g/ha
Summary of the method: as §2

[16] = system: chickweed; test: Test Example 4: herbicidal effect by soil treatment (Table 19, symbol P); type: in vivo, common chickweed (Stellaria media); settings: for herbicidal effect rating, P: chickweed: amount of applied herbicide 320 g/ha; for P: chickweed, herbicidal effect rating: AAH 320 g/ha
Summary of the method: as §1

Row | Structure (SMILES) | herbicidal effect rating, K: Italian ryegrass [1] | herbicidal effect rating, L: windgrass [2] | herbicidal effect grade, I: wild oat [3] | herbicidal effect grade, N: redroot pigweed [4] | herbicidal effect grade, K: Italian ryegrass [5] | herbicidal effect rating, A: late watergrass [6] | herbicidal effect rating, I: wild oat [7] | herbicidal effect rating, O: lambsquarters [8] | Herbicidal effect on A: late watergrass (grade 0-5) [9] | herbicidal effect on E (rice flat sedge), rating 0-5 [10] | herbicidal effect grade, O: lambsquarters [11] | herbicidal effect grade, P: chickweed [12] | herbicidal effect on D (Chinese sprangletop), rating 0-5 [13] | herbicidal effect rating, F: southern crabgrass [14] | herbicidal effect grade, H: barnyard grass [15] | herbicidal effect rating, P: chickweed [16] | K: Italian ryegrass, herbicidal effect rating [1] | L: windgrass, herbicidal effect rating [2] | I: wild oat, herbicidal effect [3] | N: redroot pigweed, herbicidal effect [4] | also measured
1 | CCCC(=O)Oc1c(C)nn(C)c(=O)c1-c1c(-c2ccc(SC)cc2)sc2ccccc12 [1-037] | 1 (Herbicidal rate of 5% or more and less than 20%) | 0 (Herbicidal rate of 5% or less (almost no effect)) | 1 (Herbicidal rate of 5% or more and less than 20%) | 5 (Herbicidal rate of 90% or more (almost completely withered)) | 4 (Herbicidal rate of 70% or more and less than 90%) | 0 (Herbicidal rate of 5% or less (almost no effect)) | 0 (Herbicidal rate of 5% or less (almost no effect)) | 3 (Herbicidal rate of 40% or more and less than 70%) | 4 (Herbicidal rate of 70% or more and less than 90%) | 5 (Herbicidal rate of 90% or more (almost completely withered)) | 5 (Herbicidal rate of 90% or more (almost completely withered)) | 5 (Herbicidal rate of 90% or more (almost completely withered)) | 3 (Herbicidal rate of 40% or more and less than 70%) | 0 (Herbicidal rate of 5% or less (almost no effect)) | 4 (Herbicidal rate of 70% or more and less than 90%) | 4 (Herbicidal rate of 70% or more and less than 90%) |  |  |  |  | 
2 | COc1ccc(-c2sc3ccccc3c2-c2c(O)c(C)nn(C)c2=O)cc1OC [1-072] | 5 (Herbicidal rate of 90% or more (almost completely withered)) | 0 (Herbicidal rate of 5% or less (almost no effect)) | 4 (Herbicidal rate of 70% or more and less than 90%) | 5 (Herbicidal rate of 90% or more (almost completely withered)) | 5 (Herbicidal rate of 90% or more (almost completely withered)) | 2 (Herbicidal rate of 20% or more and less than 40%) | 2 (Herbicidal rate of 20% or more and less than 40%) | 5 (Herbicidal rate of 90% or more (almost completely withered)) | 3 (Herbicidal rate of 40% or more and less than 70%) | 5 (Herbicidal rate of 90% or more (almost completely withered)) | 5 (Herbicidal rate of 90% or more (almost completely withered)) | 5 (Herbicidal rate of 90% or more (almost completely withered)) | 5 (Herbicidal rate of 90% or more (almost completely withered)) | 5 (Herbicidal rate of 90% or more (almost completely withered)) | 5 (Herbicidal rate of 90% or more (almost completely withered)) | 4 (Herbicidal rate of 70% or more and less than 90%) |  |  |  |  | 
3 | Cc1nn(C)c(=O)c(-c2c(-c3ccc4c(c3)OCO4)sc3ccccc23)c1O [1-087] | 3 (Herbicidal rate of 40% or more and less than 70%) | 0 (Herbicidal rate of 5% or less (almost no effect)) | 1 (Herbicidal rate of 5% or more and less than 20%) | 5 (Herbicidal rate of 90% or more (almost completely withered)) | 3 (Herbicidal rate of 40% or more and less than 70%) | 2 (Herbicidal rate of 20% or more and less than 40%) | 0 (Herbicidal rate of 5% or less (almost no effect)) | 5 (Herbicidal rate of 90% or more (almost completely withered)) | 3 (Herbicidal rate of 40% or more and less than 70%) | 5 (Herbicidal rate of 90% or more (almost completely withered)) | 3 (Herbicidal rate of 40% or more and less than 70%) | 5 (Herbicidal rate of 90% or more (almost completely withered)) | 3 (Herbicidal rate of 40% or more and less than 70%) | 2 (Herbicidal rate of 20% or more and less than 40%) | 4 (Herbicidal rate of 70% or more and less than 90%) | 5 (Herbicidal rate of 90% or more (almost completely withered)) |  |  |  |  | 
4 | CCCC(=O)Oc1c(C)nn(C)c(=O)c1-c1c(-c2ccc(C(F)(F)F)cc2)sc2ccccc12 [1-130] |  |  |  |  |  | 2 (Herbicidal rate of 20% or more and less than 40%) |  |  | 3 (Herbicidal rate of 40% or more and less than 70%) | 5 (Herbicidal rate of 90% or more (almost completely withered)) |  |  | 3 (Herbicidal rate of 40% or more and less than 70%) |  |  |  | 4 (Herbicidal rate of 70% or more and less than 90%) | 0 (Herbicidal rate of 5% or less (almost no effect)) | 0 (Herbicidal rate of 5% or less (almost no effect)) | 4 (Herbicidal rate of 70% or more and less than 90%) | K: Italian ryegrass, herbicidal effect [5]: 5 (Herbicidal rate of 90% or more (almost completely withered)); I: wild oat, herbicidal effect rating [7]: 0 (Herbicidal rate of 5% or less (almost no effect)); O: lambsquarters, herbicidal effect rating [8]: 4 (Herbicidal rate of 70% or more and less than 90%); O: lambsquarters, herbicidal effect [11]: 4 (Herbicidal rate of 70% or more and less than 90%); P: chickweed, herbicidal effect [12]: 5 (Herbicidal rate of 90% or more (almost completely withered)); F: southern crabgrass, herbicidal effect rating [14]: 1 (Herbicidal rate of 5% or more and less than 20%); H: barnyard grass, herbicidal effect [15]: 0 (Herbicidal rate of 5% or less (almost no effect)); P: chickweed, herbicidal effect rating [16]: 3 (Herbicidal rate of 40% or more and less than 70%)
5 | C#CCOc1ccc(-c2sc3ccccc3c2-c2c(O)c(C)nn(C)c2=O)cc1 [1-136] |  |  |  |  |  | 0 (Herbicidal rate of 5% or less (almost no effect)) |  |  | 3 (Herbicidal rate of 40% or more and less than 70%) | 5 (Herbicidal rate of 90% or more (almost completely withered)) |  |  | 4 (Herbicidal rate of 70% or more and less than 90%) |  |  |  | 5 (Herbicidal rate of 90% or more (almost completely withered)) | 0 (Herbicidal rate of 5% or less (almost no effect)) | 0 (Herbicidal rate of 5% or less (almost no effect)) | 4 (Herbicidal rate of 70% or more and less than 90%) | K: Italian ryegrass, herbicidal effect [5]: 5 (Herbicidal rate of 90% or more (almost completely withered)); I: wild oat, herbicidal effect rating [7]: 0 (Herbicidal rate of 5% or less (almost no effect)); O: lambsquarters, herbicidal effect rating [8]: 5 (Herbicidal rate of 90% or more (almost completely withered)); O: lambsquarters, herbicidal effect [11]: 4 (Herbicidal rate of 70% or more and less than 90%); P: chickweed, herbicidal effect [12]: 5 (Herbicidal rate of 90% or more (almost completely withered)); F: southern crabgrass, herbicidal effect rating [14]: 2 (Herbicidal rate of 20% or more and less than 40%); H: barnyard grass, herbicidal effect [15]: 4 (Herbicidal rate of 70% or more and less than 90%); P: chickweed, herbicidal effect rating [16]: 1 (Herbicidal rate of 5% or more and less than 20%)
